Assay results: the supplement of paper PMC10307832

Tests used:
Experiment in all cases: relative viability (nuclei count vs DMSO), 5 days (fraction); higher = more cells survive
ChaGo-K-1 = tested on: ChaGo-K-1
Summary of the method: (§1)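 Nuclei were stained with Hoechst during a one-step fixation (final 0.05% Triton X-100, 1% formaldehyde, 1 ug/ml Hoechst) carried out 5 days after dosing, then counted on 4× images. The cells, lung cancer lines in 1536-well plates, had been dosed by pin tool the day after seeding with one drug alone or a fixed anchor-drug dose plus five library-drug doses (not always all listed) in √10 steps. Relative viability is the nuclei count in treated wells divided by that in vehicle wells, and each value is the median of duplicate plates.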

EKVX = tested on: EKVX
Summary of the method: as §1

EPLC-272H = tested on: EPLC-272H
Summary of the method: as §1

H3255 = tested on: H3255
Summary of the method: as §1

HCC-827 = tested on: HCC-827
Summary of the method: as §1

HOP-62 = tested on: HOP-62
Summary of the method: as §1

LCLC-97TM1 = tested on: LCLC-97TM1
Summary of the method: as §1

LK-2 = tested on: LK-2
Summary of the method: as §1

LU99A = tested on: LU99A
Summary of the method: as §1

LXF-289 = tested on: LXF-289
Summary of the method: as §1

NCI-H1355 = tested on: NCI-H1355
Summary of the method: as §1

NCI-H1650 = tested on: NCI-H1650
Summary of the method: as §1

Molecule `Cc1cn(-c2cc(NC(=O)c3ccc(C)c(Nc4nccc(-c5cccnc5)n4)c3)cc(C(F)(F)F)c2)cn1` [Nilotinib] + N=C(N)NC(=N)NCCc1ccccc1 [Phenformin] (partner 250 µM) has a relative viability (ChaGo-K-1; first compound 0.001 µM) of 0.469, a relative viability (ChaGo-K-1; first compound 0.003162 µM) of 0.442 and a relative viability (ChaGo-K-1; first compound 0.01 µM) of 0.473. For the same molecule, the relative viability (ChaGo-K-1; first compound 0.03162 µM) was 0.394, the relative viability (ChaGo-K-1; first compound 0.1 µM) was 0.315 and the relative viability (EKVX; first compound 0.001 µM) was 0.231. The relative viability (EKVX; first compound 0.003162 µM) was 0.232, the relative viability (EKVX; first compound 0.01 µM) was 0.248 and the relative viability (EKVX; first compound 0.03162 µM) was 0.214. For the same molecule, the relative viability (EKVX; first compound 0.1 µM) was 0.236, the relative viability (EPLC-272H; first compound 0.001 µM) was 0.305 and the relative viability (EPLC-272H; first compound 0.003162 µM) was 0.283. The relative viability (EPLC-272H; first compound 0.01 µM) was 0.262, the relative viability (EPLC-272H; first compound 0.03162 µM) was 0.234 and the relative viability (EPLC-272H; first compound 0.1 µM) was 0.298. The relative viability (H3255; first compound 0.001 µM) was 0.382, the relative viability (H3255; first compound 0.003162 µM) was 0.303 and the relative viability (H3255; first compound 0.03162 µM) was 0.403. For the same molecule, the relative viability (H3255; first compound 0.1 µM) was 0.407, the relative viability (HCC-827; first compound 0.003162 µM) was 0.436 and the relative viability (HCC-827; first compound 0.01 µM) was 0.384. For the same molecule, the relative viability (HCC-827; first compound 0.03162 µM) was 0.438, the relative viability (HCC-827; first compound 0.1 µM) was 0.384 and the relative viability (HOP-62; first compound 0.001 µM) was 0.512. For the same molecule, the relative viability (HOP-62; first compound 0.003162 µM) was 0.706, the relative viability (HOP-62; first compound 0.01 µM) was 0.771 and the relative viability (HOP-62; first compound 0.03162 µM) was 0.444. It also gave a relative viability (HOP-62; first compound 0.1 µM) of 0.441, a relative viability (LCLC-97TM1; first compound 0.001 µM) of 0.393 and a relative viability (LCLC-97TM1; first compound 0.003162 µM) of 0.468. The relative viability (LCLC-97TM1; first compound 0.01 µM) was 0.467, the relative viability (LCLC-97TM1; first compound 0.03162 µM) was 0.426 and the relative viability (LCLC-97TM1; first compound 0.1 µM) was 0.453. For the same molecule, the relative viability (LK-2; first compound 0.001 µM) was 0.441, the relative viability (LK-2; first compound 0.003162 µM) was 0.367 and the relative viability (LK-2; first compound 0.01 µM) was 0.337. For the same molecule, the relative viability (LK-2; first compound 0.03162 µM) was 0.22, the relative viability (LK-2; first compound 0.1 µM) was 0.314 and the relative viability (LU99A; first compound 0.001 µM) was 0.697. It also gave a relative viability (LU99A; first compound 0.003162 µM) of 0.907, a relative viability (LU99A; first compound 0.01 µM) of 0.798 and a relative viability (LU99A; first compound 0.03162 µM) of 0.611. The relative viability (LU99A; first compound 0.1 µM) was 0.483, the relative viability (LXF-289; first compound 0.001 µM) was 0.545 and the relative viability (LXF-289; first compound 0.003162 µM) was 0.562. It also gave a relative viability (LXF-289; first compound 0.01 µM) of 0.558, a relative viability (LXF-289; first compound 0.03162 µM) of 0.506 and a relative viability (LXF-289; first compound 0.1 µM) of 0.454. For the same molecule, the relative viability (NCI-H1355; first compound 0.001 µM) was 0.451, the relative viability (NCI-H1355; first compound 0.003162 µM) was 0.426 and the relative viability (NCI-H1355; first compound 0.01 µM) was 0.401. For the same molecule, the relative viability (NCI-H1355; first compound 0.03162 µM) was 0.361, the relative viability (NCI-H1355; first compound 0.1 µM) was 0.424 and the relative viability (NCI-H1650; first compound 0.001 µM) was 0.464. For the same molecule, the relative viability (NCI-H1650; first compound 0.003162 µM) was 0.437.
